IC50 data for 5 molecules are collected here from patent US20260022142A1, “MACROCYCLIC IMMUNOMODULATORS” (Bristol-Myers Squibb Company, priority 2022, published 2026).

Bridge positions count the residues as written; N and C are the ends. Square brackets hold non-standard residues; d marks the D form. Peptide text beside a SMILES is read from it. * marks the point of attachment. ξ: configuration not given here. Phe(4-COOH) = N[C@@H](Cc1ccc(C(=O)O)cc1)C(=O)O; Bip = N[C@@H](Cc1ccc(-c2ccccc2)cc1)C(=O)O; Phe(3-Me) = Cc1cccc(C[C@H](N)C(=O)O)c1; Val(3-OH) = CC(C)(O)[C@H](N)C(=O)O; hArg = N=C(N)NCCCC[C@H](N)C(=O)O; Cha = N[C@@H](CC1CCCCC1)C(=O)O; Cit = NC(=O)NCCC[C@H](N)C(=O)O; Thr(3ξ) = CC(O)[C@H](N)C(=O)O; 12Ado = NCCCCCCCCCCCC(=O)O; Carboxymethyl = O=C(O)C*; Orn = NCCC[C@H](N)C(=O)O; Aun = NCCCCCCCCCCC(=O)O; Dab = NCC[C@H](N)C(=O)O; Nva = CCC[C@H](N)C(=O)O; Dap = NC[C@H](N)C(=O)O; AEEA = NCCOCCOCC(=O)O

In the assay the target is T1, PD-1/PD-L1 interaction (PE-labeled human PD-L1-Ig binding to Jurkat cell line over-expressing human PD-1) (Homo sapiens, UniProt Q15116).
T1 construct: expressed in transfected cells; host or cells: Jurkat
T1 sequence (Q15116 25-288): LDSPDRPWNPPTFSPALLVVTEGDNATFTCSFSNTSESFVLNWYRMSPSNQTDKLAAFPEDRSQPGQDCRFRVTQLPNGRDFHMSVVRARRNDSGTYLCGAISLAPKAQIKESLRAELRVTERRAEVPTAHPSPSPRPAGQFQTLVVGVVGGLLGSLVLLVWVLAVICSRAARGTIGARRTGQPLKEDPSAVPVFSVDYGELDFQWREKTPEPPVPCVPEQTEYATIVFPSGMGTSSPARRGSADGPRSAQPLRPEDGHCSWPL
The assay can be described thus: Jurkat-PD-1 Cell Binding High-Content Screening Assay (CBA). Particulars: Jurkat cell line over-expressing human PD-1; PE-labeled PD-L1-Ig 20 nM final; read-out: Jurkat hPD1-PDL1 IC50. It counts as cell-based. In outline:
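Binding of fluorescent PD-L1-Ig (phycoerythrin on Ig tag, 20 nM final, 1 h) measured by high-content imaging of fixed, Hoechst-counterstained Jurkat-hPD-1 cells. Compound added 2 h at 37° C beforehand, in DMEM with 10% fetal calf serum.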
As usually defined, the IC50 is the concentration needed to halve the response being measured. On to `CC(C)C[C@H]1NC(=O)[C@H](CCCN)NC(=O)[C@H](C(C)C)NC(=O)[C@H](Cc2ccc(-c3ccccc3)cc2)NC(=O)[C@H](C(C)C)NC(=O)[C@H](Cc2c[nH]c3ccccc23)NC(=O)[C@H](CC(=O)O)NC(=O)[C@H](Cc2ccc(OCC(=O)O)cc2)NC(=O)[C@H](CN)NC(=O)CSC[C@@H](C(=O)NCCOCCOCC(=O)N[C@H](Cc2cnc[nH]2)C(=O)NCCCCCCCCCCC(=O)O)NC(=O)[C@H]([C@@H](C)O)NC(=O)[C@H](C(C)C)NC(=O)[C@H](CC2CCCCC2)NC(=O)[C@H](Cc2cnc[nH]2)NC1=O` [Compound 1135] ({CH2CO}-[Dap]Y(Carboxymethyl)DWV[Bip]V[Orn][dL]H[Cha]VTC[AEEA][dH][Aun]-OH; thioether N-14), for which the IC50 came to 81.1 nM.
The result for `CCC[C@@H]1NC(=O)CSC[C@@H](C(=O)N[C@@H](CCN)C(=O)NCCOCCOCC(=O)NCCCCCCCCCCC(=O)O)NC(=O)[C@H](CO)NC(=O)[C@H](C(C)(C)O)NC(=O)[C@H](CC2CCCCC2)NC(=O)[C@H](CCN)NC(=O)[C@@H](CC(C)C)NC(=O)[C@H](CCCN)NC(=O)[C@H](Cc2ccc(C(=O)O)cc2)NC(=O)[C@H](Cc2ccc(-c3ccccc3)cc2)NC(=O)[C@H](Cc2ccc(C(=O)O)cc2)NC(=O)[C@H](Cc2cccc(C)c2)NC(=O)[C@H](CC(=O)O)NC(=O)[C@H](Cc2ccc(OCC(=O)O)cc2)NC1=O` [Compound 2877] ({CH2CO}-[Nva]Y(Carboxymethyl)D[Phe(3-Me)][Phe(4-COOH)][Bip][Phe(4-COOH)][Orn][dL][Dab][Cha][Val(3-OH)]SC[Dab][AEEA][Aun]-OH; thioether N-14) reads 1.5 nM.
Next, `CC(C)C[C@@H]1NC(=O)[C@H](Cc2c[nH]c3ccccc23)NC(=O)[C@H](CC(=O)O)NC(=O)[C@H](Cc2ccc(OCC(=O)O)cc2)NC(=O)[C@H](CN)NC(=O)CSC[C@@H](C(=O)N[C@@H](CCN)C(=O)NCCCCCCCCCCC(=O)O)NC(=O)[C@H](CCCN)NC(=O)[C@H](C(C)O)NC(=O)[C@H](CC2CCCCC2)NC(=O)[C@H](CCN)NC(=O)[C@@H](CC(C)C)NC(=O)[C@H](CCCN)NC(=O)[C@H](Cc2ccc(O)cc2)NC(=O)[C@H](Cc2ccc(-c3ccccc3)cc2)NC1=O` (stereo partly drawn) [Compound 3682] ({CH2CO}-[Dap]Y(Carboxymethyl)DWL[Bip]Y[Orn][dL][Dab][Cha][Thr(3ξ)][Orn]C[Dab][Aun]-OH; thioether N-14): 51.4 nM.
As for `Cc1cccc(C[C@@H]2NC(=O)[C@H](CC(=O)O)NC(=O)[C@H](Cc3ccc(OCC(=O)O)cc3)NC(=O)[C@H](CCCNC(=N)N)NC(=O)CSC[C@@H](C(=O)N[C@@H](CCN)C(=O)NCCCCCCCCCCC(=O)O)NC(=O)[C@H](CCCNC(N)=O)NC(=O)[C@H](C(C)C)NC(=O)[C@H](CC3CCCCC3)NC(=O)[C@H](CCN)NC(=O)[C@@H](CC(C)C)NC(=O)[C@H](CCCN)NC(=O)[C@H](Cc3ccc(O)cc3)NC(=O)[C@H](Cc3ccc(-c4ccccc4)cc3)NC(=O)[C@H](Cc3ccc(O)cc3)NC2=O)c1` [Compound 2724] ({CH2CO}-RY(Carboxymethyl)D[Phe(3-Me)]Y[Bip]Y[Orn][dL][Dab][Cha]V[Cit]C[Dab][Aun]-OH; thioether N-14), the IC50 is 7.7 nM.
For the molecule `CC(C)C[C@H]1NC(=O)[C@H](CCCN)NC(=O)[C@H](C(C)C)NC(=O)[C@H](Cc2ccc(-c3ccccc3)cc2)NC(=O)[C@H](C(C)C)NC(=O)[C@H](Cc2c[nH]c3ccccc23)NC(=O)[C@H](CC(=O)O)NC(=O)[C@H](Cc2ccc(OCC(=O)O)cc2)NC(=O)[C@H](CCCCNC(=N)N)NC(=O)CSC[C@@H](C(=O)NCC(=O)NCCOCCOCC(=O)N[C@@H](CCCN)C(=O)NCCOCCOCC(=O)NCCCCCCCCCCCC(=O)O)NC(=O)[C@H](CO)NC(=O)[C@H](C(C)C)NC(=O)[C@H](CC2CCCCC2)NC(=O)[C@H](CCN)NC1=O` [Compound 3190] ({CH2CO}-[hArg]Y(Carboxymethyl)DWV[Bip]V[Orn][dL][Dab][Cha]VSCG[AEEA][Orn][AEEA][12Ado]-OH; thioether N-14), the 50% inhibitory concentration (IC50) was determined as 20.4 nM.
